Results on six molecules are retold here after patent publication EP1276895B1, “METHOD FOR THE IDENTIFICATION OF ACTIVE SITE PROTEASE INACTIVATORS” (THE UNIVERSITY OF GEORGIA RESEARCH FOUNDATION, INC., priority 2000, dated 2001).

Residues, ends and D or L forms follow the SMILES beside them. *: point of attachment. AFC = O=c1cc(C(F)(F)F)c2ccc(N*)cc2o1; Cbz = O=C(OCc1ccccc1)*; Boc = CC(C)(C)OC(=O)*

Holding throughout (assay type): biochemical
The subject of assay [1] is purified Taenia solium cysteine protease. Briefly: Substrate cleavage screen of AFC-linked synthetic substrates (Step II), purified protease. The note with it: 1 ug purified protease, 1 ug substrate, Citrate pH 4.9 with 0.01 M cysteine, 18 h, 37 °C. As to the method: In this step, the most efficacious substrate for detection of the cysteine protease (high Kcat substrate) was determined in vitro along with those substrates which were not well cleaved (low kcat substrates). From this point forth, the following conditions refer to all assays: "assay buffer" refers to 0.4 M Citrate, pH 4.9 (the pH optima of the protease). Incubation time was 18 hours at 37°C. These conditions were determined by our preliminary data to be best for kinetic evaluation of the protease. […] The experiments were conducted in […] Borosilicate mini-culture tubes (Fisher Scientific), and a fluorometer (Turner) was employed for detection of AFC cleavage.
Approximately 1 ug (or a proteolytically detectable amount) of the purified target cysteine protease was incubated individually, with 1 ug of each of the available substrates in 500 uL of assay buffer. During this setup, the substrate was pre-incubated in the assay buffer for a short period of time (20 minutes) in order to reach an equilibrated status before the addition of the protease. Cleavage assessments were based upon the property of the protease to cleave synthetic peptide substrates linked at the C-terminus to 7-Amino-4-Trifluoromethyl Coumarin (AFC) as previously described. AFC linked tripeptides, dipeptides, and monopeptides, (with a variety of permutations at P3-P1) were available from Enzyme Systems Products (Livermore, CA), and were used as the source of the subset. Following incubation of enzyme preparations overnight (18 h, 37 °C) with peptide in assay buffer (Citrate, pH 4.9, supplemented with 0.01 M cysteine), free AFC concentrations were measured fluorometrically (excitation 405 nm, emission 505 nm). The proteolytic cleavage released the AFC group, which was measurable as a free molecule by a standard fluorometer and converted into molar quantities, based upon a previously established standard curve. The simplicity of AFC detection by the fluorometer was a key factor which quickened and simplified the procedures.
In the assay, 1 ug of the purified Taenia cysteine protease was added to a saturating amount of Z-Phe-Arg-AFC (4X10^-5 M) in assay buffer. The experiment was conducted in triplicate and repeated at least 5 times until we were certain that variability in AFC cleavage was not statistically significant.
(§1) Vmax was calculated for the cleavage of substrates by the purified target protease and Vmax was calculated for substrates cleaved by the crude mix protease using conventional kinetic modeling calculations already described in the art.

Assay [2] has as its system Taenia solium crude mix. Briefly: Substrate cleavage screen of AFC-linked synthetic substrates (Step II), crude mix. Conditions: 0.4 M Citrate pH 4.9, 18 h, 37 °C. As to the method: In order to prepare the Taenia solium "crude mix", dry frozen Taenia solium cysts were obtained from 6-12 month old cysticercotic pigs from villages in an endemic area of porcine cysticercosis in Mexico. Metacestodes were carefully dissected from the parasitized tissues, washed three times with PBS, and lyophilized. Parasite extracts were prepared by suspending 0.1 grams of dry frozen cysts in 10 ml of extraction buffer (0.4 M citrate, pH 4.9). The cysts were vortexed for three five-minute intervals with intermittent incubations (5 min) at 4 °C. Particulate material was removed by centrifugation (20,000 x g, 120 min) and the resulting soluble fraction filtered ([…]). In assay buffers, the detectable amount of the crude mix, as described above, was employed and incubated with the target substrates.
as §1
Similar steps were employed here as they are for the purified protease. As will be noted, similar conclusions were noted on the identification of the protease inhibitor on the crude mix, and the identical hypothesis was derived (Fig. 4b). It is notable that the most cleaved substrates were Z-FR-AFC, Z-FAR-AFC, Z-AAK-AFC, AP-AFC, Z-VLR-AFC, respectively. This cleavage pattern, noted along with others, was highly similar to the cleavage pattern due to the purified protease. […] Moreover, non-cleaved substrates were also highly similar, although there were subtle variations in relative cleavage for the non-cleaved substrates. However, this would be expected as fluorometric readings will tend to have subtle variation at lower readings due to background effects.

The test system of assay [3] is purified cysteine protease of Taenia solium. Briefly: Human IgG degradation inhibition test, western blot (Step IV), purified enzyme. The note with it: 18 hrs, 37°C, E 64 10^-6 M, vehicle 10^-3 M. The procedure:
To conduct this assessment, a western blot was performed. IgG digestion was detected by incubating 20 ul of T. solium purified enzyme or T. so/ium extract with 1 ug of human IgG (Sigma, St. Louis) in a final volume of 100 ul of assay buffer. Exogenous thiol activation was assessed by incubating the assay in the presence or absence of cysteine. The catalytic class of the IgG protease was determined by pre-incubating the following proteinase inhibitors at their active concentrations, with the enzyme: E 64 (10^-6 M, cysteine proteinases), phenylmethylsulfonyl fluoride (PMSF) (10^-3 M, serine proteinases), pepstatin A (10^-6 M, aspartic proteinases), and 1,10 phenanthroline (10^-3 M, metalloproteinases), and the vehicle, Mu-Leu-Tyr-AFC (10^-3 M). After addition of IgG, the assay was incubated overnight (37°C, 18 hrs). Subsequently, 100 ul of the mixture was boiled in sodium dodecyl sulfate polyacrylamide gel electrophoresis (SDS-PAGE) sample buffer with 2% 2-mercaptoethanol, separated by 12.5% SDS-PAGE, and blotted onto a polyvinylidene difluoride membrane. Tris buffered saline containing 0.1% bovine serum albumin and 0.05% Tween 20 (TBS-BSA) was used to block nonspecific binding. […]

The subject of assay [4] is purified Taenia solium cysteine protease. Briefly: Competitor assay of low Vmax substrates (vehicles) against high Vmax substrate cocktails (Step III), purified protease. Conditions: robustness of inhibition.
The test system is the same in assay [5]. The assay is described as above. Conditions: purified protease; for V Value: V = P * M, P = inhibition with first (1.4%) cocktail, M = inhibition with last (7.4%) cocktail, vehicle 8X10^-6M, each cocktail substrate 1X10^-6 M. The procedure:
(We employed "Vmax" here although Kcat could also be used). Due to the lower number of substrates, a percentage was not chosen for the "BOTTOM %" " substrates. Alternately, all substrates which were not cleaved as determined by a value of 10 uM/hr or less, were chosen to be tested in this step for competitive ability. From this point forth, the term "vehicle" will represent low Vmax substrates that were capable of inhibiting cleavage of the percent cocktails. In this instance, we tested for "vehicles" which inhibited cleavage of the TOP 1.4% cocktail (they were delivered into the active site). Based upon our results from Step II, the top 1.4% cocktail was composed of Z-Phe-Arg-AFC, the highest cleaved substrate.
(§2) The experiment began with a competitor test between the noncleaved low Vmax substrates and the highest Vmax substrate, Z-Phe-Arg-AFC. Concentrations were varied between the low Vmax substrate and Z-Phe-Arg-AFC, as described above under "refinement of assay" until a relative inhibition profile was obtained.
The mixture was allowed to equilibrate for a period of 30 minutes. Finally, active purified enzyme was added to the tubes at a concentration which was always 50 times less than the concentration of the high and low Vmax substrates, in order to insure saturation conditions. This concentration varied from purification to purification and the amount added depended upon the yield and specific activity of the purified protease.
Positive controls were set up similarly as described for test controls, except that solvent was added in substitution for the low Vmax substrate (in a volume equal to the low Vmax volume addition). All of the substrates could be dissolved in dimethylsulfoxide (DMSO), and therefore, this was the solvent of choice. Negative controls were set up by adding the low Vmax and the high Vmax substrate in a tube without the protease. All potential non-proteolytic induced liberation of AFC was therefore controlled for in this tube (a feature which also insured stability of the AFC substrates, since these substrates will freely liberate AFC when unstable). A tube set will be established for this negative control.
All controls were set up in triplicate, and experiments repeated a minimum of five times. The assays were incubated at 37°C, for 18 hours overnight.
(§3) Percent inhibition was calculated as: %Inhibition =; ((AFC positive for"Y"-AFC negative for"Y")-(AFC test-AFC negative for"Y")X100)/(AFC positive for "Y"-AFC negative for "Y") [formula]
A 2.9% cocktail of the high Vmax substrates was made. This was composed of Z-FR-AFC and the second most cleaved substrate, Z-FAR-AFC. The vehicles promoted from the initial screenings above were again tested for competitive inhibition ability with the new cocktails. Their concentrations were set identically to those which were "fixed" in the previous protocols. In other words, 8X10^-6M of the vehicle was added to the culture tube with 1X10^-6 M of Z-FR-AFC and 1X10^-6 M of Z-FAR-AFC. Active protease was added last at a concentration that was 50 times less than the concentration of the high Vmax substrate (to ensure saturating conditions).
In similar experimental fashion, a 4.4%, 5.9%, and 7.4% cocktail were tested with each of the promising vehicles. Each percentage point represented an increase by one substrate. Each of the individual components in the cocktail were added at 1X10^-6 M each, to 8X10^-6 M of the vehicle. The composition of the cocktails was as follows: 4.4% cocktail: Z-FR-AFC, Z-FAR-AFC, and Z-AAK-AFC (third highest cleaved substrate); 5.9% cocktail: Z-FR-AFC, Z-FAR-AFC, Z-AAK-AFC, and AP-AFC (fourth highest cleaved substrate); 7.4% cocktail: […], Z-FAR-AFC, Z-AAK-AFC, AP-AFC, and Z-VLR-AFC. We stopped at this number of substrates in the cocktail, since confidence was obtained that inhibitory potential of vehicles could be "diluted out."
Finally, a manageable set of candidate vehicles was determined. […]

In assay [6] the test system is Taenia solium crude mix. Briefly: Competitor assay of vehicles against high Vmax substrate cocktails (Step III), crude mix. As to the method: Step III for a crude mix proceeds it would for a purified protease, except that Vm is used instead of kcat.
as §2, §3
One of the most intriguing findings in this experiment was that a highly similar inhibition pattern for the competitor assay was noted when the crude mix was employed as the source of the target protease. Although there were some variations in the effects of inhibitor dilution, the most highly ranked vehicles remained inhibitory consistently in comparison to the profile with the target protease. The relative profile and composition of the top tiers of vehicles was identical. Z-LLL-AFC, Z-LLY-AFC, Mu-LY-AFC, Boc-VPR-AFC, Z-SY-AFC, Z-RR-AFC, Z-FLF-AFC, Z-LGR-AFC consistently presented as the top eight vehicles (Fig. 5b), respectively, based upon their V values (Table 2). […] It was notable that the three vehicles had very similar V values. […] As was mentioned, this vehicle along with Z-LLL-AFC and Z-LLY-AFC, were consistently the most inhibitory vehicles. The V values of the most inhibitory vehicle series are shown below in Table 2. Again, a clear break between the first and second tier vehicles could be noted with the V value. Table 2. Vehicles and V value rankings.

For the molecule `N=C(N)NCCC[C@H](NC(=O)[C@H](Cc1ccccc1)NC(=O)OCc1ccccc1)C(=O)Nc1ccc2c(C(F)(F)F)cc(=O)oc2c1` [Z-FR-AFC, Z-Phe-Arg-AFC, reference compound] (Cbz-Phe-Arg-{AFC}), the “cleavage of AFC-linked substrate (Vmax)” value in assay [1] was “cleaved”; in assay [1] (listed as Z-Phe-Arg-AFC), “highest Vmax”; in the assay on Taenia solium crude mix [2], “most cleaved”.
As to `C[C@H](NC(=O)[C@H](Cc1ccccc1)NC(=O)OCc1ccccc1)C(=O)N[C@@H](CCCNC(=N)N)C(=O)Nc1ccc2c(C(F)(F)F)cc(=O)oc2c1` [Z-FAR-AFC] (Cbz-Phe-Ala-Arg-{AFC}), the “cleavage of AFC-linked substrate (Vmax)” value in the assay on Taenia solium crude mix [2] was “most cleaved”.
Take `C[C@H](NC(=O)OCc1ccccc1)C(=O)N[C@@H](C)C(=O)N[C@@H](CCCCN)C(=O)Nc1ccc2c(C(F)(F)F)cc(=O)oc2c1` [Z-AAK-AFC] (Cbz-Ala-Ala-Lys-{AFC}): the “cleavage of AFC-linked substrate (Vmax)” value in the assay on Taenia solium crude mix [2] was “most cleaved”.
Still for that read-out and setting: as for `CC(C)C[C@H](NC(=O)[C@@H](NC(=O)OCc1ccccc1)C(C)C)C(=O)N[C@@H](CCCNC(=N)N)C(=O)Nc1ccc2c(C(F)(F)F)cc(=O)oc2c1` [Z-VLR-AFC] (Cbz-Val-Leu-Arg-{AFC}), the entry is “most cleaved”.
Turning to `CC(C)CC(NC(=O)C1OC1C(=O)O)C(=O)NCCCCNC(=N)N` (centres unmarked) [E64, reference compound], the “inhibition of cleavage of human IgG” value in assay [3] is listed as “Inhibition was noted”.
Take `CC(C)[C@H](NC(=O)OC(C)(C)C)C(=O)N1CCC[C@H]1C(=O)N[C@@H](CCCNC(=N)N)C(=O)Nc1ccc2c(C(F)(F)F)cc(=O)oc2c1` [B-VPR-AFC, Boc-Val-Pro-Arg-AFC] (Boc-Val-Pro-Arg-{AFC}): the “percentage drop in inhibition between the 1.4% and the 7.4% cocktail” value in assay [4] is given as 38%. In addition, the “inhibition with the final cocktail (7.4%)” value in assay [5] (7.4% cocktail = Z-FR-AFC + Z-FAR-AFC + Z-AAK-AFC + AP-AFC + Z-VLR-AFC, 1X10^-6 M each, vehicle 8X10^-6 M) is on record as “less than 20%”. Further, the “V Value” in assay [5] is given as 0.116; in assay [5] (listed as B-VPR-AC), 0.120; in the assay with Taenia solium crude mix [6] (V = P * M), 0.12. The “cleavage of AFC-linked substrate (Vmax)” value in assay [1] is recorded as “noncleavable”. For the same molecule, the Tier in the assay on Taenia solium crude mix [6] is given as 2 (The second tier was composed of those vehicles, which produced inhibition between 20-50% inhibition when in the presence of the 1.4% cocktail).
